Test results as given in paper PMC10714400, “Antimicrobial Peptide–Peptoid Hybrids with and without Membrane Disruption” (ACS Infectious Diseases, 2023).
In brackets after ≈: the same amount, converted by molar mass. Read-outs that look alike come from different tables or passages of the source. Where a SMILES comes first, the peptide text is derived from it. [ ]: non-standard residue; d: D form. Nleu = CC(C)CNCC(=O)O; Nlys = NCCCCNCC(=O)O

Experiments:
A. baumannii ATCC19606 = conditions: for MIC A. baumannii ATCC19606 […] 7.4 / MIC A. baumannii ATCC19606 […] 8.5 / MIC A. baumannii ATCC19606 Full MH 7.4 / MIC A. baumannii ATCC19606 Full MH 8.5: Table S2; for MIC A. baumannii ATCC19606 […] 7.4 / MIC A. baumannii ATCC19606 […] 8.5: […] MH; for MIC A. baumannii ATCC19606 […] 8.5 / MIC A. baumannii ATCC19606 Full MH 8.5: pH 8.5
Outline: (§1)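 MTT added (20–30 min, room temperature); MIC read by eye as lowest concentration inhibiting visible growth (yellow). Polymyxin B positive control from 16 μg/mL.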

K. pneumoniae NCTC418 = conditions: for MIC K. pneumoniae NCTC418 […] 7.4 / MIC K. pneumoniae NCTC418 […] 8.5: […] MH
Outline: as §1

P. aeruginosa PAO1 = conditions: for MIC P. aeruginosa PAO1 […] 7.4 / MIC P. aeruginosa PAO1 […] 8.5 / MIC P. aeruginosa PAO1 Full MH 7.4 / MIC P. aeruginosa PAO1 Full MH 8.5: Table S2; for MIC P. aeruginosa PAO1 […] 7.4 / MIC P. aeruginosa PAO1 […] 8.5: […] MH; for MIC P. aeruginosa PAO1 […] 8.5 / MIC P. aeruginosa PAO1 Full MH 8.5: pH 8.5
Outline: (§2)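 Using MTT as a visual viability dye, MICs were scored as the lowest concentration with no visible growth. Prior to staining, ~5 × 10^5 CFU per well grew in MH medium for ca. 18 h at 37 °C under static conditions.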

PA14 4.18 (pmrB) = conditions: for MIC P. aeruginosa PA14 4.18: Table S3; for MIC P. aeruginosa PA14 4.18, […] MH at pH 8.5 / MIC P. aeruginosa PA14 4.18: […] MH at pH 8.5
Outline: as §2

A549 cells = assay: Cell viability assay by Alamar blue; assay type: cell-based; conditions: CSV; read-out: Toxicity on A549 lung cancern cells
Protocol: The data are represented as the mean value ± SD, n = 3. […] (c) Vesicle leakage assay for a selection of compounds. Lipid vesicles made of EYPG or EYPC were suspended in a buffer (10 mM TRIS, 107 mM NaCl, pH 7.4). After 45 s, the indicated compound was added to reach the desired concentration. After 240 s, 30 μL of 1.2% TritonX-100 was added for full fluorescein release. […] See Supporting Information for the full curves, all of the data, and procedures.
HEK293 cells were cultured and maintained in DMEM high glucose (Dulbecco’s modified Eagle medium, Sigma Aldrich) medium supplemented with 10% FBS (Sigma Aldrich) and 1% penicillin/streptomycin. A549 cells were cultured and maintained in RPMI-1640 medium (Sigma Aldrich), supplemented with 10% FBS (Sigma Aldrich) and 1% penicillin/streptomycin. The cells were handled and subcultured according to the manufacturer instructions. Cells were incubated in a humidified incubator at 37 °C in the presence of 5% CO2.
Assays on HEK293, A549 cells were performed as described earlier.[74] […]

E. coli W3110 = assay: Time–kill assay; assay type: cell-based, Escherichia coli
Source text: Figure 1 Killing profile of selected compounds on bacteria a) against E. coli W3110 measured in full MH at pH 7.4, b) against P. aeruginosa PAO1 in full MH at pH 7.4, c) against E. coli W3110 in diluted MH at pH 8.5, and d) against P. aeruginosa PAO1 in dilute MH at pH 8.5. The assay was repeated twice in triplicate, and the data represent the mean ± SD, n = 6.

Row | SMILES | MIC A. baumannii ATCC19606 […] 7.4 (A. baumannii ATCC19606; pH 7.4) | MIC A. baumannii ATCC19606 […] 8.5 (A. baumannii ATCC19606) | MIC A. baumannii ATCC19606 Full MH 7.4 (A. baumannii ATCC19606; pH 7.4) | MIC A. baumannii ATCC19606 Full MH 8.5 (A. baumannii ATCC19606) | MIC K. pneumoniae NCTC418 […] 7.4 (K. pneumoniae NCTC418; Table S2, pH 7.4) | MIC K. pneumoniae NCTC418 […] 8.5 (K. pneumoniae NCTC418; Table S2, pH 8.5) | MIC K. pneumoniae NCTC418 Full MH 7.4 (K. pneumoniae NCTC418; Table S2, full MH, pH 7.4) | MIC P. aeruginosa PAO1 […] 7.4 (P. aeruginosa PAO1; pH 7.4) | MIC P. aeruginosa PAO1 […] 8.5 (P. aeruginosa PAO1) | MIC P. aeruginosa PAO1 Full MH 7.4 (P. aeruginosa PAO1; pH 7.4) | MIC P. aeruginosa PAO1 Full MH 8.5 (P. aeruginosa PAO1) | MIC P. aeruginosa PA14 4.18, […] MH at pH 8.5 (PA14 4.18 (pmrB); CSV) | MIC P. aeruginosa PA14 4.18 (PA14 4.18 (pmrB)) | also measured
1 | CC(C)C[C@H](NC(=O)[C@H](CC(C)C)NC(=O)[C@H](CC(C)C)NC(=O)[C@H](CCCCN)NC(=O)[C@H](CC(C)C)NC(=O)[C@H](CC(C)C)NC(=O)CN(CCCCN)C(=O)[C@H](CC(C)C)NC(=O)[C@H](CC(C)C)NC(=O)CN(CCCCN)C(=O)CNCCCCN)C(N)=O [EB6, kkLLkLLKLLL] (H-[Nlys][Nlys]LL[Nlys]LLKLLL-NH2) | 2 µg/mL (≈ 1.51 µM) | 2 µg/mL (≈ 1.51 µM) | 2 µg/mL (≈ 1.51 µM) | 8 µg/mL (≈ 6.05 µM) | 4 µg/mL (≈ 3.03 µM) | 2 µg/mL (≈ 1.51 µM) | 8 µg/mL (≈ 6.05 µM) | 2 µg/mL (≈ 1.51 µM) | 4 µg/mL (≈ 3.03 µM) | 4 µg/mL (≈ 3.03 µM) | 16 µg/mL (≈ 12.1 µM) | 2 ug/mL | 2 µg/mL (≈ 1.51 µM) | MIC A. baumannii ATCC19606, full MH at pH 7.4 (A. baumannii ATCC19606; ATCC19606, 4 h, pH 7.4): 2 ug/mL; MIC K. pneumoniae NCTC418, full MH at pH 7.4 (K. pneumoniae NCTC418; NCTC418, 4 h, pH 7.4): 8 ug/mL; MIC K. pneumoniae NCTC418, full MH at pH 8.5 (K. pneumoniae NCTC418; NCTC418, 4 h, pH 8.5): 12 ug/mL; MIC K. pneumoniae NCTC418 Full MH 8.5 (K. pneumoniae NCTC418; NCTC418, 4 h, pH 8.5): 8 to 16 µg/mL; MIC P. aeruginosa PAO1, full MH at pH 7.4 (P. aeruginosa PAO1; PAO1, 4 h, pH 7.4): 4 ug/mL; MIC P. aeruginosa PA14 4.18, full MH at pH 7.4 (PA14 4.18 (pmrB); CSV, full MH at pH 7.4): 16 ug/mL; MIC PA14 4.18 (pmrB) (PA14 4.18 (pmrB); MH pH 7.4, 16–20 h at 37 °C): 16 µg/mL (≈ 12.1 µM); IC50 (A549 cells): 19 ± 1 µM; Time–kill, killing profile (E. coli W3110; E. coli W3110, full MH at pH 7.4): completely killed
2 | CC(C)CN(CC(N)=O)C(=O)CN(CC(C)C)C(=O)CN(CC(C)C)C(=O)CN(CCCCN)C(=O)CN(CC(C)C)C(=O)CN(CC(C)C)C(=O)CN(CCCCN)C(=O)CN(CC(C)C)C(=O)CN(CC(C)C)C(=O)CN(CCCCN)C(=O)CNCCCCN [EB11, kkllkllklll] (H-[Nlys][Nlys][Nleu][Nleu][Nlys][Nleu][Nleu][Nlys][Nleu][Nleu][Nleu]-NH2) | 16 µg/mL (≈ 12.1 µM) | 16 µg/mL (≈ 12.1 µM) | > 32 µg/mL | > 32 µg/mL | 32 µg/mL (≈ 24.2 µM) | 32 µg/mL (≈ 24.2 µM) | > 32 µg/mL | 8 µg/mL (≈ 6.05 µM) | 4 µg/mL (≈ 3.03 µM) | > 32 µg/mL | > 32 µg/mL | 12 ug/mL | 8 to 16 µg/mL | MIC A. baumannii ATCC19606, […] MH at pH 7.4 (A. baumannii ATCC19606; CSV, […] MH at pH 7.4): 16 ug/mL; MIC A. baumannii ATCC19606, […] MH at pH 8.5 (A. baumannii ATCC19606; CSV, […] MH at pH 8.5): 16 ug/mL; MIC A. baumannii ATCC19606, full MH at pH 7.4 (A. baumannii ATCC19606; CSV, full MH at pH 7.4): >32 ug/mL; MIC A. baumannii ATCC19606, full MH at pH 8.5 (A. baumannii ATCC19606; CSV, full MH at pH 8.5): >32 ug/mL; MIC K. pneumoniae NCTC418, […] MH at pH 7.4 (K. pneumoniae NCTC418; CSV, […] MH at pH 7.4): 32 ug/mL; MIC K. pneumoniae NCTC418, […] MH at pH 8.5 (K. pneumoniae NCTC418; CSV, […] MH at pH 8.5): 32 ug/mL; MIC K. pneumoniae NCTC418, full MH at pH 7.4 (K. pneumoniae NCTC418; CSV, full MH at pH 7.4): >32 ug/mL; MIC K. pneumoniae NCTC418, full MH at pH 8.5 (K. pneumoniae NCTC418; CSV, full MH at pH 8.5): >32 ug/mL; MIC K. pneumoniae NCTC418 Full MH 8.5 (K. pneumoniae NCTC418; Table S2, full MH, pH 8.5): > 32 µg/mL; MIC P. aeruginosa PAO1, […] MH at pH 7.4 (P. aeruginosa PAO1; CSV, […] MH at pH 7.4): 8 ug/mL; MIC P. aeruginosa PAO1, full MH at pH 7.4 (P. aeruginosa PAO1; CSV, full MH at pH 7.4): >32 ug/mL; MIC P. aeruginosa PAO1, full MH at pH 8.5 (P. aeruginosa PAO1; CSV, full MH at pH 8.5): >32 ug/mL; Antibacterial activity as a function of NaCl concentration (P. aeruginosa PAO1; P. aeruginosa PAO1, […] MH at pH 8.5, up to 300 mM NaCl): strongly reduced; MIC PA14 4.18 (pmrB) (PA14 4.18 (pmrB); diluted MH ([…] MH) at pH 8.5 (Table 2 footnote b)): 8 to 16 µg/mL; Time–kill, killing profile (E. coli W3110; E. coli W3110, diluted MH at pH 8.5): Bacteria could still be detected after 6 h
